The values that follow come from patent US9169260B2 (MERCK SHARP & DOHME CORP., priority 2011, dated 2015).

Each structure is given as a SMILES string.

For one test, the target named is GST tagged IRAK-4 (Homo sapiens (Human), UniProt Q9NWZ3). The test can be described thus: IRAK-4 Kinase Assay (IMAP fluorescence polarization). The class given is biochemical. The settings on record: 100 μM ATP, 30 minutes at 25° C. The method, boiled down: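 Activity was read by IMAP fluorescence polarization, where phosphopeptide binding to M(III) nanoparticles raises FP. The 30-minute, 25° C reaction used 100 μM ATP, 100 nM RP7030 substrate and 0.5 nM GST-IRAK-4 in pH 7.2 Tris buffer with MgCl2, DTT and Tween 20.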
Chain of GST tagged IRAK-4 (Q9NWZ3 whole entry): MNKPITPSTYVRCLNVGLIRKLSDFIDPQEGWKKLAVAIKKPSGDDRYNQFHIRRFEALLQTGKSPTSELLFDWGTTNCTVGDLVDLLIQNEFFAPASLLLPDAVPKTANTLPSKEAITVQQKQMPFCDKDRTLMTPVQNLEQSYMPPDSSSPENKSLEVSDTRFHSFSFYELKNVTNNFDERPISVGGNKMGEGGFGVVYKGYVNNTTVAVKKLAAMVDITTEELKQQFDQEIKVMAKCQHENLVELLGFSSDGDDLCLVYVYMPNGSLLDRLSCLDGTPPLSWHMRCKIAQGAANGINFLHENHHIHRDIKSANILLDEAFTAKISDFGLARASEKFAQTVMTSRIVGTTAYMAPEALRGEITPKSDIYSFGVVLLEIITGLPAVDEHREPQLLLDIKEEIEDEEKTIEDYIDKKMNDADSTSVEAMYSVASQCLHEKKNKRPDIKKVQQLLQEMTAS
On the technique in general: In fluorescence polarisation assays a small probe gives low polarisation when free and higher when bound to something large.
For orientation: IC50 means the midpoint of a concentration-inhibition curve. As for `Cc1cnc(-n2nc(C3CCN(S(C)(=O)=O)CC3)cc2NC(=O)c2cnn3cccnc23)nc1` [Example 170, N-(1-(5-methylpyrimidin-2-yl)-3-(1-(methylsulfonyl)piperidin-4-yl)-1H-pyrazol-5-yl)pyrazolo[1,5-a]pyrimidine-3-carboxamide], the IC50 was below 0.1 µM.

Molecule `COc1ccc(-n2nc(C3CCNCC3)cc2NC(=O)c2cnn3cc(C(N)=O)cnc23)cc1` [Example 105, N3-(1-(4-methoxyphenyl)-3-(piperidin-4-yl)-1H-pyrazol-5-yl)pyrazolo[1,5-a]pyrimidine-3,6-dicarboxamide] came in with an IC50 below 0.1 µM.

With `Cc1ccc(-n2nc(C3CCN(C4CCC(NS(C)(=O)=O)CC4)CC3)cc2NC(=O)c2cnn3cccnc23)nc1` (stereo not drawn) [Example 263, N-[1-(5-methylpyridin-2-yl)-3-(1-{4-[(methylsulfonyl)amino]cyclohexyl]piperidin-4-yl)-1H-pyrazol-5-yl}pyrazolo[1,5-a]pyrimidine-3-carboxamide], the 50% inhibitory concentration (IC50) is below 0.1 µM.

`CN1CCC(c2cc(NC(=O)c3cnn4cccnc34)n(-c3ccc(C4CC4)cc3F)n2)CC1` [Example 398, N-(1-(4-cyclopropyl-2-fluorophenyl)-3-(1-methylpiperidin-4-yl)-1H-pyrazol-5-yl)pyrazolo[1,5-a]pyrimidine-3-carboxamide]: the IC50 was below 0.1 µM.

`CNS(=O)(=O)c1ccc(-c2cc(NC(=O)c3cnn4cccnc34)n(-c3ccc(C4CC4)cn3)n2)cc1` [Example 151, N-(1-(5-cyclopropylpyridin-2-yl)-3-(4-(N-methylsulfamoyl)phenyl)-1H-pyrazol-5-yl)pyrazolo[1,5-a]pyrimidine-3-carboxamide]: the concentration for half-maximal inhibition (IC50) is below 0.1 µM.

`Cc1ccc(-n2nc(-c3ccnc(N)c3)cc2NC(=O)c2cnn3cccnc23)cc1` [Example 355, N-[3-(2-aminopyridin-4-yl)-1-(4-methylphenyl)-1H-pyrazol-5-yl]pyrazolo[1,5-a]pyrimidine-3-carboxamide] yielded an IC50 below 0.1 µM.

With `Cc1ccc(-n2nc(C3CCN(C4CCC(C#N)CC4)CC3)cc2NC(=O)c2cnn3cccnc23)nc1` (stereo not drawn) [Example 265, N-{3-[1-(4-cyanocyclohexyl)piperidin-4-yl]-1-(5-methylpyridin-2-yl)-1H-pyrazol-5-yl}pyrazolo[1,5-a]pyrimidine-3-carboxamide], the 50% inhibitory concentration (IC50) was below 0.1 µM.

Molecule `Cc1ccc(-n2nc(C3CCN(S(=O)(=O)Cc4ccccn4)CC3)cc2NC(=O)c2cnn3cccnc23)cc1` [Example 397, N-[1-(4-methylphenyl)-3-{1-[(pyridin-2-ylmethyl)sulfonyl]piperidin-4-yl}-1H-pyrazol-5-yl]pyrazolo[1,5-a]pyrimidine-3-carboxamide] had a half-maximal inhibitory concentration (IC50) below 0.1 µM.

As for `Cc1ccc(-n2nc(C3CCNCC3)cc2NC(=O)c2cnn3cccnc23)c(F)c1` [Example 56, N-(1-(2-fluoro-4-methylphenyl)-3-(piperidin-4-yl)-1H-pyrazol-5-yl)pyrazolo[1,5-a]pyrimidine-3-carboxamide], the half-maximal inhibitory concentration (IC50) is below 0.1 µM.

`Cc1ccc(-n2nc(C3CCN(C4CCCC(C)C4)CC3)cc2NC(=O)c2cnn3cccnc23)nc1` (stereo not drawn) [Example 277, N-{3-[1-(3-methylcyclohexyl)piperidin-4-yl]-1-(5-methylpyridin-2-yl)-1H-pyrazol-5-yl}pyrazolo[1,5-a]pyrimidine-3-carboxamide] had an IC50 below 0.1 µM.

On to `Cc1ccc(-n2nc(C3CCN(S(C)(=O)=O)CC3)cc2NC(=O)c2cnn3cccnc23)c(F)c1` [Example 57, N-(1-(2-fluoro-4-methylphenyl)-3-(1-(methylsulfonyl)piperidin-4-yl)-1H-pyrazol-5-yl)pyrazolo[1,5-a]pyrimidine-3-carboxamide], for which the IC50 was below 0.1 µM.

For the molecule `Cc1ccc(-n2nc(C3CCN(C(=O)CCN(C)C)CC3)cc2NC(=O)c2cnn3cc(Br)cnc23)cc1` [Example 113, 6-bromo-N-(3-(1-(3-(dimethylamino)propanoyl)piperidin-4-yl)-1-(p-tolyl)-1H-pyrazol-5-yl)pyrazolo[1,5-a]pyrimidine-3-carboxamide], the concentration for half-maximal inhibition (IC50) was below 0.1 µM.

Turning to `[2H]C([2H])([2H])c1ccc(-n2nc(N3CCN(S(C)(=O)=O)CC3)cc2NC(=O)c2cnn3cccnc23)nc1` [Example 200, N-(1-(5-trideuteromethylpyridin-2-yl)-3-(4-(methylsulfonyl)piperazin-1-yl)-1H-pyrazol-5-yl)pyrazolo[1,5-a]pyrimidine-3-carboxamide], the half-inhibitory concentration (IC50) is below 0.1 µM.

Regarding `CC1(c2cc(NC(=O)c3cnn4cccnc34)n(-c3ccc(CN)cn3)n2)CC1` [Example 176, N-(1-(5-(aminomethyl)pyridin-2-yl)-3-(1-methylcyclopropyl)-1H-pyrazol-5-yl)pyrazolo[1,5-a]pyrimidine-3-carboxamide], the half-maximal inhibitory concentration (IC50) was below 0.1 µM.

`CNS(=O)(=O)c1ccc(-c2cc(NC(=O)c3cnn4cccnc34)n(-c3ccc(C)cc3F)n2)cc1` [Example 100, N-(1-(2-fluoro-4-methylphenyl)-3-(4-(N-methylsulfamoyl)phenyl)-1H-pyrazol-5-yl)pyrazolo[1,5-a]pyrimidine-3-carboxamide]: the IC50 is below 0.1 µM.

Turning to `Cc1ccc(-n2nc(C3CCN(Cc4cncs4)CC3)cc2NC(=O)c2cnn3cccnc23)cc1` [Example 229, N-{1-(4-methylphenyl)-3-[1-(1,3-thiazol-5-ylmethyl)piperidin-4-yl]-1H-pyrazol-5-yl}pyrazolo[1,5-a]pyrimidine-3-carboxamide], the concentration for half-maximal inhibition (IC50) is below 0.1 µM.

The test is the same for the next values; noted with them: 100 μM ATP, 30 minutes at 25° C.; μM.
On to `Cc1ccc(-n2nc(C3CCN(S(=O)(=O)c4ccc(Cl)nc4)CC3)cc2NC(=O)c2cnn3cccnc23)cc1` [Example 382], for which the concentration for half-maximal inhibition (IC50) is below 1 µM.

Consider `Cc1ccc(-n2nc(C3CCN(Cc4cccnc4)CC3)cc2NC(=O)c2cnn3cccnc23)cc1` [Example 225, N-{1-(4-methylphenyl)-3-[1-(pyridin-3-ylmethyl)piperidin-4-yl]-1H-pyrazol-5-yl}pyrazolo[1,5-a]pyrimidine-3-carboxamide], for which the concentration for half-maximal inhibition (IC50) is below 1 µM.

For `Cc1ccc(-n2nc(-c3ccc(F)cc3)cc2NC(=O)c2cnn3cccnc23)cc1` [Example 135, N-(3-(4-fluorophenyl)-1-(p-tolyl)-1H-pyrazol-5-yl)pyrazolo[1,5-a]pyrimidine-3-carboxamide], the IC50 is above 1 µM.

In turn, `Cc1ccc(-n2nc(C3CCN(S(=O)(=O)CCC(F)(F)F)CC3)cc2NC(=O)c2cnn3cccnc23)cc1` [Example 363, N-[1-(4-methylphenyl)-3-{1-[(3,3,3-trifluoropropyl)sulfonyl]piperidin-4-yl}-1H-pyrazol-5-yl]pyrazolo[1,5-a]pyrimidine-3-carboxamide] gave a half-maximal inhibitory concentration (IC50) below 1 µM.

`Cc1ccc(-n2nc(C3CCN(C(=O)C4CN(C)CCO4)CC3)cc2NC(=O)c2cnn3cc(Br)cnc23)cc1` (stereo not drawn) [Example 117, 6-bromo-N-(3-(1-(4-methylmorpholine-2-carbonyl)piperidin-4-yl)-1-(p-tolyl)-1H-pyrazol-5-yl)pyrazolo[1,5-a]pyrimidine-3-carboxamide] registered a half-maximal inhibitory concentration (IC50) below 1 µM.

Turning to `Cc1ccc(-n2nc(C3CCC(=NO)CC3)cc2NC(=O)c2cnn3cccnc23)cc1` (stereo not drawn) [Example 2, N-(3-(4-(hydroxyimino)cyclohexyl)-1-(p-tolyl)-1H-pyrazol-5-yl)pyrazolo[1,5-a]pyrimidine-3-carboxamide], the half-maximal inhibitory concentration (IC50) is below 1 µM.

`Cc1ccc(-n2nc(C3CCN(C(C)C)CC3)cc2NC(=O)c2cnn3cccnc23)c(Cl)c1` [Example 66, N-(1-(2-chloro-4-methylphenyl)-3-(1-isopropylpiperidin-4-yl)-1H-pyrazol-5-yl)pyrazolo[1,5-a]pyrimidine-3-carboxamide] came in with an IC50 below 1 µM.

With `COc1ccc(-n2nc(C3CCNCC3)cc2NC(=O)c2cnn3cccnc23)cc1` [Example 8, N-(1-(4-methoxyphenyl)-3-(piperidin-4-yl)-1H-pyrazol-5-yl)pyrazolo[1,5-a]pyrimidine-3-carboxamide], the IC50 was below 1 µM.

Regarding `CC(=O)N1CCC(c2cc(NC(=O)c3cnn4cccnc34)n(-c3ccc(C)cc3)n2)CC1` [Example 31, N-(3-(1-acetylpiperidin-4-yl)-1-(p-tolyl)-1H-pyrazol-5-yl)pyrazolo[1,5-a]pyrimidine-3-carboxamide], the half-inhibitory concentration (IC50) was below 1 µM.

`Cc1ccc(-n2nc(C3CCN(C4CN(C(=O)OC(C)(C)C)C4)CC3)cc2NC(=O)c2cnn3cccnc23)cc1` [Example 261, tert-butyl 3-(4-{1-(4-methylphenyl)-5-[(pyrazolo[1,5-a]pyrimidin-3-ylcarbonyl)amino]-1H-pyrazol-3-yl}piperidin-1-yl)azetidine-1-carboxylate] displayed an IC50 below 1 µM.

On to `O=C(Nc1cc(C2CCNCC2)nn1-c1ccc(Br)cc1F)c1cnn2cccnc12` [Example 70, N-(1-(4-bromo-2-fluorophenyl)-3-(piperidin-4-yl)-1H-pyrazol-5-yl)pyrazolo[1,5-a]pyrimidine-3-carboxamide], for which the IC50 was below 1 µM.

The molecule `O=C(Nc1cc(C2CCN(S(=O)(=O)C3CC3)CC2)nn1-c1ccc(C2CC2)cc1)c1cnn2cccnc12` [Example 54, N-(1-(4-cyclopropylphenyl)-3-(1-(cyclopropylsulfonyl)piperidin-4-yl)-1H-pyrazol-5-yl)pyrazolo[1,5-a]pyrimidine-3-carboxamide] registered a 50% inhibitory concentration (IC50) below 1 µM.

The molecule `O=C(Nc1cc(C2CCN(CC(F)(F)F)CC2)nn1-c1ccc(C2CC2)cc1F)c1cnn2cccnc12` [Example 76, N-(1-(4-cyclopropyl-2-fluorophenyl)-3-(1-(2,2,2-trifluoroethyl)piperidin-4-yl)-1H-pyrazol-5-yl)pyrazolo[1,5-a]pyrimidine-3-carboxamide] had an IC50 below 1 µM.

Molecule `Cc1ccc(-n2nc(C3CCN(S(=O)(=O)c4ccc(F)cc4F)CC3)cc2NC(=O)c2cnn3cccnc23)cc1` [Example 370, N-[3-{1-[(2,4-difluorophenyl)sulfonyl]piperidin-4-yl}-1-(4-methylphenyl)-1H-pyrazol-5-yl]pyrazolo[1,5-a]pyrimidine-3-carboxamide] yielded a 50% inhibitory concentration (IC50) below 1 µM.
